Measurements as given in ChEMBL document CHEMBL1153130, “Discovery of dipiperidines as new antitubercular agents” (Bioorg Med Chem Lett, 2010).
Values after ≈ are worked out from the molar mass of the structure shown.

Tests used:
HepG2 = experiment: Cytotoxicity against human HepG2 cells after 72 hrs by MTS assay; format: cell-based; conditions: HepG2, 72 h
[1] = test system: Mycobacterium tuberculosis; experiment: Antitubercular activity against Mycobacterium tuberculosis H37Rv after 10 to 14 days by BACTEC assay; format: functional
[2] = test system: Mycobacterium tuberculosis; experiment: Antitubercular activity against Mycobacterium tuberculosis H37Rv assessed as inhibition of cell wall biosynthesis after 10 to 14 days by bioluminescence assay relative to ethambutol; format: functional; parameters: scale not given: the % may be the effect or the level left
[3] = test system: Mycobacterium tuberculosis; experiment: Antitubercular activity against Mycobacterium tuberculosis H37Rv after 10 to 14 days by broth microdilution assay; format: functional
[4] = Selectivity index, IC50 for human HepG2 cells to MIC for Mycobacterium tuberculosis H37Rv ATCC 25618; format: functional

| SMILES | IC50 (HepG2) | MIC [1] | Activity [2] | MIC [3] | Selectivity Index [4] |
| --- | --- | --- | --- | --- | --- |
| OC1CCN(CC2CCN(CC(c3ccccc3)c3ccccc3)CC2)CC1 | 30 µM | 16 µM (≈ 6.06 µg/mL) | 125% | 7.8 µM (≈ 2.95 µg/mL) | 3.85 |
| OC1CCN(CC2CCN(C3C4CC5CC(C4)CC3C5)CC2)CC1 (centres undefined) | 25 µM |  | 102% | 31.2 µM (≈ 10.4 µg/mL) | 0.8 |
| OC1CCN(CC2CCN(CC34CC5CC(CC(C5)C3)C4)CC2)CC1 | 56 µM | 15.6 µM (≈ 5.41 µg/mL) | 59% | 6.25 µM (≈ 2.17 µg/mL) | 8.96 |
